“Also recorded” adds a separate entry of the source. Where no end group is shown, it is not given here.
Tests used:
[1] = system: hyperproliferative psoriatic keratinocytes; experiment: proliferation assay (Coulter cell counter) on hyperproliferative psoriatic keratinocytes; assay type: cell-based, human
Text: Biopsy samples are obtained from psoriatic patients. Skin from patients with chronic plaque psoriasis are obtained with informed consent. Ethical approval has been obtained previously from The South Sheffield Regional Ethics Committee. Biopsies are all be taken from the lower back in psoriasis patients aged 40 to 60.
Remove subcutaneous tissue and some of the dermis with scissors, dissect skin into 1×2 cm pieces with a scalpel. Rinse the tissue 2-5 times in PBSA. Float skin samples on 0.6% Trypsin in PBSA (pH 7.4) ON at 4° C. (or alternatively for 20-30 min at 37° C.)
The separation of the epidermis is carefully monitored. When the first detachment of the epidermis is visible at the cut edges of the skin sample place the pieces (dermis-side down) in 100 mm Petri dishes. Irrigate with 5 ml of complete culture medium (incl. serum). Peel off the epidermis with forceps and collect it in a 50 ml centrifuge tube containing 20 ml of complete culture medium (KGM). Separate the keratinocytes from the epidermal cells by gently pipetting and sieving through a nylon gauze of 100 μm mesh. Wash the isolated epidermal cells twice in KGM by centrifugation at 100 g for 10 min, and count the total number of cells.
Cells are seeded at 37° C. in KGM medium at a density of 2500 cells/cm^2 in a 25 cm^2 cell culture flask. The medium is replaced every 48 hours and cells are passaged when confluent.
Cell Seeding and Analysis: Purchased secondary cultures or primary cultures (from donor skin) are seeded at 3500 cells/cm^2 in K-SFM 25 cm^2 tissue culture flasks. The medium is changed (5 ml per flask) the day after seeding and every other day thereafter. At 70-80% confluence the cells are subcultured by seeding 3500 cells per well in 24 well cell culture plates, each well containing 500 μl of K-SFM. One well plate is seeded for each treatment. After allowing one day for settling the cells are switched to experimental medium (500 μl per well). Stock solutions of additions are as before. Experimental treatments are as follows:
The medium is replaced every other day. Cells are harvested by trypsinisation. 500 μl Trypsin/EDTA is added to each well to be harvested and then aspirated off. The well plates are incubated for 5-6 min at 37° C. 500 μl PBS is added to the wells and the cells are resuspended. The cell suspension is added to 20 ml Isoton solution in a Coulter counter “Accuvette” and the cells are counted. On each harvest, 3 wells of cells are counted for each treatment and 3 counts were made for each well.
Cell number is calculated as follows: Coulter Counter removes 500 μl of 20 ml sample ( 1/40). Multiply cell count by 40 to obtain cell number in cup, this equals the total number of cells in one well (approximately, as ˜10% taken out for viability test). […]

[2] = system: hyperproliferative psoriatic keratinocytes; experiment: differentiation assay (K1/K10 mRNA, Northern blot / RT-PCR) on hyperproliferative psoriatic keratinocytes; assay type: cell-based, human
Protocol: RNA extraction is carried out according to the manufacturers instructions using the RNeasy kit (QIAGEN). 20 μg of RNA for each treatment was separated on a 1.2% agarose (1.8% formaldehyde) gel and transferred onto a nylon membrane (Zeta probe GT membranes, BioRad) by capillary transfer. The RNA is fixed to the membrane by UV crosslinking. DNA probes for the differentiation markers K1 and K10(50 ng) are labelled with [α-^32P] dCTP using the Prime-It RmT Primer labeling kit (Stratagene) following the manufacturer's instructions. Unincorporated nucleotides are removed by elution through a Microspin G25 column (Pharmacia Biotech). The blots are wetted in 0.25M sodium phosphate (pH 7.2)/7% SDS for 30 minutes at 65° C. Fresh hybridisation solution is added along with the radiolabelled probe and the blot is hybridised overnight at 65° C.
The blot is washed for 2×5 minutes in 0.25M sodium phosphate (pH 7.2), 7% SDS and then for 2×5 minutes in 20 mM sodium phosphate (pH 7.2), 5% SDS at 65° C. The wash steps are repeated until a clear distinction can be made between the signal and non-specific background. The blot is exposed to x-ray film for 24 hours before developing.
Synthesis of mRNA for the K1 and K10 keratin (markers for commitment to terminal differentiation) is examined by quantitative reverse transcription PCR (RT-PCR). Synthesis of mRNA for Cyclin D (a marker for cell proliferation) is also assayed by RT-PCR. Standard protocol for RT-PCR is followed as recommended by the manufacturer of the PCR machine (PE 2400) using 1 μg RNA from each keratinocyte culture. Suitable primers for RT-PCR are designed based on the human sequences of K1 and K10 deposited in GenBank. Northern blots are also performed: cells are harvested, RNA extracted and 20 μg RNA loaded into each well of a formaldehyde/agarose gel. The RNA is blotted onto a nylon membrane by capillary transfer and expression of K1 mRNA is determined by Northern hybridisation with a radiolabelled DNA probe.
Next, hyperproliferative epidermal keratinocytes are obtained, isolated and cultured as described above in Example 3. Hyperproliferative psoriatic keratinocytes are cultured as described above in serum-free medium with or without the addition of […] human retinol binding protein. At confluence the cells are treated (see Table 3 below) for 96 hours with peptides to 6 μM (medium replaced after 48 hours). Treatments shown in the Table 3 are for duplicate T-25 flasks (2×7 ml for each treatment).
The final concentrations are: Ca^2+ 1.2 mM, RBP 0.6 μM, peptides 6 μM.
Expression of K1 and K10 markers is determined as described above in Example 4. […]
Synthesis of mRNA for markers of proliferation and differentiation is also examined by semi-quantitative reverse transcription PCR (RT-PCR). […]

COS-1 cells = experiment: proliferation assay of COS-1 cells (Coulter counter); assay type: cell-based; conditions: P142 1 mg/ml, peptides 6 μM; 24 and 48 hours after treatment; FIG. 7
Protocol: (§1) […] (COS1 and COS7) are purchased from the European Cell Culture Collection, thawed and propagated according to the instructions from the supplier; cells are cultured essentially in the same manner as for normal human keratinocytes (Example 3 above), except that cells are seeded at 20 000 cells/cm^2, with only one treatment with antibody P142, control immunoglobulin, peptide 589, peptide 592 or control peptide 24 hrs after seeding.
(§2) Proliferation is assayed by counting cells in a Coulter counter, as described above.

COS-7 cells = experiment: proliferation assay of COS-7 cells (Coulter counter); assay type: cell-based; conditions: P142 1 mg/ml, peptides 6 μM; 24 and 48 hours after treatment; FIG. 8
Protocol: as §1, §2

[3] = system: human dermal fibroblast cells; experiment: proliferation assay of human dermal fibroblast cells; assay type: cell-based; conditions: P142 1 mg/ml, peptides 6 μM; 24 hours and 4 days after treatment; FIG. 9
Protocol: Fibroblast cell culture is performed essentially as described for culture of hyperproliferative psoriatic keratinocytes (Example 3), except that following irrigation with complete culture medium, the dermal portion is incubated with 1 mg/ml of collagenase (Sigma) in 20 ml DMEM in a 50 ml centrifuge tube for 16 hours at 37° C. Then 20 ml DMEM containing 5% foetal calf serum and 1% antibiotic/antimycotic solution (Gibco) is added and the cells seeded at 37° C. in DMEM medium+additions at a density of 2500 cells/cm^2 in a 25 cm^2 cell culture flask. Medium is replaced every 48 hours and cells passaged when confluent.
Fibroblast cell culture and experiments are performed essentially as described for culture of hyperproliferative psoriatic keratinocytes (above), except that following irrigation with complete culture medium, the dermal portion is processed further. Reference is made to fibroblast culture protocols set out above.
Proliferation of cells is assayed by direct cell counting essentially as for determination of proliferation in keratinocyte cell cultures. RDH, ADH, RalDH inhibitors are found to reduce proliferation.

[4] = peptides 6 μM, Ca2+ 1.2 mM, RBP 0.6 μM

Molecule	effect on RBP-increased proliferation [1, 4]	differentiation (expression of K1 and K10 markers) [2, 4]	proliferation of Cos-1 cells (cell numbers) (COS-1 cells)	proliferation of Cos-7 cells (cell numbers) (COS-7 cells)	fibroblast proliferation (cell numbers) [3]	keratinocyte proliferation on addition of retinol or retinoic acid ([1]; 1.2 mM Ca2+, 2 μM ROL, FIG. 10)	effect of RBP or ROL on differentiation ([2]; under differentiation pressure from 1.2 mM calcium)
MKYWGVASFLQKGND [Peptide 592]	reversed	reversed; also recorded: same effect	marked reduction in proliferation	marked reduction in proliferation	greater reduction in proliferation	–	–
CC1=C(/C=C/C(C)=C/C=C/C(C)=C/CO)C(C)(C)CCC1 [retinol, (2E,4E,6E,8E)-3,7-dimethyl-9-(2,6,6-trimethylcyclohex-1-en-1-yl)nona-2,4,6,8-tetraen-1-ol, reference compound]	–	–	–	–	–	induced	inhibition of differentiation

Source: patent US8048918B2, “Treatment of hyperproliferative diseases” (Vampex Limited, priority 2000, dated 2011)
